Measurements reported in patent US9242984B2, “Pyrazolyl derivatives as Syk inhibitors” (Merck Sharp & Dohme Corp., priority 2012, dated 2016).

Molecular target: T1, recombinant human Syk (GST-hSyk fusion protein) (Homo sapiens, UniProt P43405)
T1 construct: purchased Carna Biosciences 08-176
Assay: Homogeneous Time-Resolved Fluorescence (HTRF) assay for the recombinant human Syk enzyme
Assay type: biochemical
Settings: IC50 class; 10-dose titration, 25 μM ATP; read-out: rhSYK Activity
How it was run: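 IC50 came from a four-parameter fit over ten doses, 10 μM to 0.508 nM, with HTRF read-out (Eu-anti-pTyr antibody, SA-APC, EDTA stop, 30 min). The enzyme, 5 pM GST-hSyk, met compound for 10 min, then phosphorylated 250 nM biotin-peptide with 25 μM ATP and 5 mM Mg for 45 min at room temperature, pH 7.5.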

Row | IC50 [nM] | SMILES
1 | ≤ 100 | Cc1cc(Nc2nccc(C(F)F)n2)cc(-c2cnn(CCNS(=O)(=O)C3CC3)c2)c1 [Example 27.13, N-{2-[4-(3-{[4-(difluoromethyl)pyrimidin-2-yl]amino}-5-methylphenyl)-1H-pyrazol-1-yl]ethyl}cyclopropanesulfonamide]
2 | ≤ 100 | Cc1cc(Nc2nccc(C(F)F)n2)cc(-c2cnn(CC(C)(O)CC#N)c2)c1 (stereo not drawn) [Example 20.8, 4-[4-(3-{[4-(difluoromethyl)pyrimidin-2-yl]amino}-5-methylphenyl)-1H-pyrazol-1-yl]-3-hydroxy-3-methylbutanenitrile]
3 | ≤ 100 | CC(=O)C(C)n1cc(-c2cc(C)cc(Nc3nccc(C(F)F)n3)c2)cn1 (stereo not drawn) [Example 21.3, 3-[4-(3-{[4-(difluoromethyl)pyrimidin-2-yl]amino}-5-methylphenyl)-1H-pyrazol-1-yl]butan-2-one]
4 | ≤ 100 | Cc1cc(Nc2nccc(C(C)(F)F)n2)cc(-c2cnn(CC(C)(O)CC#N)c2)c1 (stereo not drawn) [Example 20.10, 4-[4-(3-{[4-(1,1-difluoroethyl)pyrimidin-2-yl]amino}-5-methylphenyl)-1H-pyrazol-1-yl]-3-hydroxy-3-methylbutanenitrile]
5 | ≤ 100 | Cc1cc(Nc2cc(C(F)(F)F)ccn2)nc(-c2cnn(CC(C)(O)CO)c2)c1 (stereo not drawn) [Example 21.4, 2-methyl-3-[4-(4-methyl-6-{[4-(trifluoromethyl)pyridin-2-yl]amino}pyridin-2-yl)-1H-pyrazol-1-yl]propane-1,2-diol]
6 | ≤ 100 | Cc1cc(Nc2nccc(C(F)F)n2)cc(-c2cnn(C(C)C(C)(O)CO)c2)c1 (single isomer, unassigned) [Example 22.2, 3-(4-(3-((4-(Difluoromethyl)pyrimidin-2-yl)amino)-5-methylphenyl)-1H-pyrazol-1-yl)-2-methylbutane-1,2-diol]
7 | ≤ 100 | Cc1cc(Nc2ncc(F)c(C(F)F)n2)cc(-c2cnn(CC(C)(O)CC#N)c2)c1 (stereo not drawn) [Example 20.6, 4-[4-(3-{[4-(difluoromethyl)-5-fluoropyrimidin-2-yl]amino}-5-methylphenyl)-1H-pyrazol-1-yl]-3-hydroxy-3-methylbutanenitrile]
8 | ≤ 100 | Cc1cc(Nc2nccc(C(F)F)n2)cc(-c2cnn(CCNC(=O)CC#N)c2)c1 [Example 26.4, 2-cyano-N-{2-[4-(3-{[4-(difluoromethyl)pyrimidin-2-yl]amino}-5-methylphenyl)-1H-pyrazol-1-yl]ethyl}acetamide]
9 | ≤ 100 | Cc1cc(Nc2nccc(C(F)(F)F)n2)cc(-c2cnn(CC3CCCO3)c2)c1 (stereo not drawn) [Example 13.3, N-{3-methyl-5-[1-(tetra-hydrofuran-2-ylmethyl)-1H-pyrazol-4-yl]phenyl}-4-(trifluoro-methyl)-pyrimidin-2-amine]
10 | ≤ 100 | Cc1cc(Nc2nccc(C(F)(F)F)n2)cc(-c2cnn(CC3COCCC3O)c2)c1 (stereo not drawn) [Example 12.12, 3-{[4-(3-methyl-5-{[4-(trifluoromethyl)pyrimi-din-2-yl]amino}phenyl)-1H-pyrazol-1-yl]methyl}-tetrahydro-2H-pyran-4-ol]

The next lines start with the compound.

Row | SMILES | IC50 [nM]
11 | Cc1cc(Nc2nccc(C(F)(F)F)n2)cc(-c2cnn(CCC(=O)O)c2)c1 [Example 1.2, 3-[4-(3-methyl-5-{[4-(trifluoromethyl)-pyrirnidin-2-yl]amino}-phenyl)-1H-pyrazol-1-yl]-propanoic acid] | ≤ 100
12 | Cc1cc(Nc2cc(C(F)(F)F)ccn2)nc(-c2cnn(CCC(C)C)c2)c1 [Example 1.14, 4-methyl-6-[1-(3-methylbutyl)-1H-pyrazol-4-yl]-N-[4-(trifluoromethyl)pyridin-2-yl]pyridin-2-amine] | ≤ 100
13 | Cc1cc(Nc2nccc(C(F)(F)F)n2)cc(-c2cnn(CCOCCO)c2)c1 [Example 3.19] | ≤ 100
14 | COc1ccnc(Nc2cc(C)cc(-c3cnn(CC4CNC(=O)O4)c3)c2)n1 (stereo not drawn) [Example 2.17, 5-[(4-{3-[(4-methoxypyrimidin-2-yl)amino]-5-methylphenyl}-1H-pyrazol-1-yl)methyl]-1,3-oxazolidin-2-one] | ≤ 100
15 | Cc1cc(Nc2nccc(C(F)(F)F)n2)cc(-c2cnn(CC(O)C(=O)O)c2)c1 (racemic) [Example 5.14, 2-hydroxy-3-[4-(3-methyl-5-{[4-(trifluoro-methyl)pyrimidin-2-yl]amino}-phenyl)-1H-pyrazol-1-yl]propanoic acid] | ≤ 100
16 | Cc1cc(Nc2nccc(C(F)F)n2)cc(-c2cnn(CC3CNC(=O)O3)c2)c1 (stereo not drawn) [Example 2.64, 5-{[4-(3-{[4-(difluoromethyl)pyrimidin-2-yl]amino}-5-methylphenyl)-1H-pyrazol-1-yl]methyl}-1,3-oxazolidin-2-one] | ≤ 100
17 | Cc1cc(Nc2nccc(C(F)F)n2)cc(-c2cnn(C(C[C@H](C)O)[C@@H](C)O)c2)c1 (stereo in doubt) [Example 2.49, 3-[4-(3-{[4-(difluoromethyl)pyrimidin-2-yl]amino}-5-methylphenyl)-1H-pyrazol-1-yl]hexane-2,5-diol] | ≤ 100
18 | Cc1cc(Nc2nccc(C(F)(F)F)n2)cc(-c2cnn(CC(=O)N3[C@H](C)COC[C@H]3C)c2)c1 [Example 3.15, N-[3-(1-{2-[(3r,5r)-3,5-dimethylmorpholin-4-yl]-2-oxoethyl}-1H-pyrazol-4-yl)-5-methylphenyl]-4-(trifluoromethyl)-pyrimidin-2-amine] | ≤ 100
19 | COCCCNC(=O)[C@@H](O)Cn1cc(-c2cc(C)cc(Nc3nccc(C(F)(F)F)n3)c2)cn1 [Example 6.12, (2S)-2-hydroxy-N-(3-methoxypropyl)-3-[4-(3-methyl-5-{[4-(trifluorometh-yl)pyrimidin-2-yl]amino}phenyl)-1H-pyrazol-1-yl]propanamide] | ≤ 100
20 | Cc1cc(Nc2nccc(C(F)F)n2)cc(-c2cnn(CC3CC(=O)NC3C)c2)c1 (stereo not drawn) [Example 2.79, 4-{[4-(3-{[4-(difluoromethyl)pyrimidin-2-yl]amino}-5-methylphenyl)-1H-pyrazol-1-yl]methyl}-5-methylpyrrolidin-2-one] | ≤ 100
21 | Cc1cc(Nc2nccc(C3CC3)n2)cc(-c2cnn(CC3CNC(=O)O3)c2)c1 (stereo not drawn) [Example 2.33, 5-[(4-{3-[(4-cyclopropylpyrimidin-2-yl)amino]-5-methylphenyl}-1H-pyrazol-1-yl)methyl]-1,3-oxazolidin-2-one] | ≤ 100
22 | Cc1cc(Nc2nccc(C(F)(F)F)n2)cc(-c2cnn(C(C)C(N)=O)c2)c1 (racemic) [Example 8.8, 2-[4-(3-methyl-5-{[4-(trifluoromethyl)-pyrimidin-2-yl]amino}phenyl)-1H-pyrazol-1-yl]propanamide] | ≤ 100
23 | Cc1cc(Nc2cc(C(F)(F)F)ccn2)nc(-c2cn[nH]c2)c1 [Example 1.12, 4-methyl-6-(1H-pyrazol-4-yl)-N-[4-(trifluoromethyl)pyridin-2-yl]pyridin-2-amine] | ≤ 100
24 | Cc1cc(Nc2ncc(F)c(C)n2)cc(-c2cnn(C[C@](C)(O)CO)c2)c1 [Example 2.94, (2S)-3-(4-{3-[(5-fluoro-4-methylpyrimidin-2-yl)amino]-5-methylphenyl}-1H-pyrazol-1-yl)-2-methylpropane-1,2-diol] | ≤ 100
25 | Cc1cc(Nc2nccc(C(F)(F)F)n2)cc(-c2cnn(CCS(C)(=O)=O)c2)c1 [Example 3.48, N-(3-methyl-5-{1-[2-(methylsulfonyl)ethyl]-1H-pyrazol-4-yl}phenyl)-4-(trifluoromethyl)pyrimidin-2-amine] | ≤ 100
26 | Cc1cc(Nc2nccc(C(F)(F)F)n2)cc(-c2cnn(CC3CNC(=O)O3)c2)c1 (single isomer, unassigned) [Example 2.4, 5-{[4-(3-methyl-5-{[4-(trifluoromethyl)-pyrimidin-2-yl]-amino}phenyl)-1H-pyrazol-1-yl]methyl}-1,3-oxazolidin-2-one] | ≤ 100
27 | Cc1cc(Nc2nccc(C(F)(F)F)n2)cc(-c2cnn(CC(=O)N3[C@H](C)COC[C@@H]3C)c2)c1 [Example 3.14, N-[3-(1-{2-[(3r,5s)-3,5-dimethyl-morpholin-4-yl]-2-oxoethyl}-1H-pyrazol-4-yl)-5-methylphenyl]-4-(trifluoromethyl)-pyrimidin-2-amine] | 100 to 1000
28 | Cc1cc(Nc2nccc(C(F)(F)F)n2)cc(-c2cnn(CC3OC(=O)NC3(C)C)c2)c1 (stereo not drawn) [Example 3.100, 4,4-dimethyl-5-{[4-(3-methyl-5-{[4-(trifluoromethyl)pyrimidin-2-yl]amino}phenyl)-1H-pyrazol-1-yl]methyl}-1,3-oxazolidin-2-one] | ≤ 100
29 | Cc1cc(Nc2nccc(C(F)(F)F)n2)cc(-c2cnn(C[C@H](O)C(N)=O)c2)c1 [Example 8.4, (2S)-2-hydroxy-3-[4-(3-methyl-5-{[4-(trifluoromethyl)-pyrimidin-2-yl]amino}-phenyl)-1H-pyrazol-1-yl]propanamide] | ≤ 100
30 | Cc1cc(Nc2nccc(C(F)(F)F)n2)cc(-c2cnn(CC(=O)N3CCOCC3(C)C)c2)c1 [Example 3.13, N-(3-{1-[2-(3,3-dimethylmorpholin-4-yl)-2-oxoethyl]-1H-pyrazol-4-yl}-5-methylphenyl)-4-(trifluoromethyl)pyrimidin-2-amine] | 100 to 1000
31 | Cc1cc(Nc2nccc(C(F)F)n2)cc(-c2cnn(CC3(C)CNC(=O)C3)c2)c1 (stereo not drawn) [Example 2.80, 4-{[4-(3-{[4-(difluoromethyl)pyrimidin-2-yl]amino}-5-methylphenyl)-1H-pyrazol-1-yl]methyl}-4-methylpyrrolidin-2-one] | ≤ 100
32 | Cc1cc(Nc2nccc(C(F)(F)F)n2)cc(-c2cnn(CC(C)(O)C(=O)O)c2)c1 (racemic) [Example 5.6, 2-hydroxy-2-methyl-3-[4-(3-methyl-5-{[4-(trifluoro-methyl)pyrimidin-2-yl]amino}-phenyl)-1H-pyrazol-1-yl]propanoic acid] | ≤ 100
33 | Cc1cc(Nc2cc(C(F)F)ccn2)nc(-c2cnn(C(C)C3CNC(=O)O3)c2)c1 (stereo not drawn) [Example 3.87, 5-{1-[4-(6-{[4-(difluoromethyl)pyridin-2-yl]amino}-4-methylpyridin-2-yl)-1H-pyrazol-1-yl]ethyl}-1,3-oxazolidin-2-one] | ≤ 100
